{"source": "patent US8470366B2", "about": "“Nicotine containing soft gelatin pastilles” (priority 2010, dated 2013)", "origin": "cited, not measured here", "key": {"[1]": {"conditions": "background statement"}, "[2]": {"conditions": "background statement", "remark": "listed apart in the source"}}}
{"smiles": "CN1CCCC1c1cccnc1", "note": "(single isomer, unassigned; (+)) [(+) nicotine]", "values": [{"measurement": "Physiological activity relative to (−) nicotine", "setting": "[1]", "value": "one-half"}]}
{"smiles": "CN1CCCC1c1cccnc1", "note": "(centres unmarked) [nicotine, Nicotine]", "values": [{"measurement": "Half life of nicotine in the body", "setting": "[2]", "value": "around two"}]}
